Some results are limits rather than exact numbers.

The target of test [1] is Protein farnesyltransferase (Bos taurus, UniProt P29702+P49355). The experiment in a line: Inhibition of Bovine farnesyl transferase. The class given is protein-complex assay.
For test [2], the target named is Geranylgeranyl transferase type I (Bos taurus, UniProt P29702+Q5EAD5). Put plainly: Inhibition of Bovine geranylgeranyl transferase. The class given is protein-complex assay.
Test [3] addresses T1, Protein farnesyltransferase (Mus musculus, UniProt Q61239+Q8K2I1). The experiment in a line: Effective concentration against H-ras processing in transformed NIH3T3 cells. The class given is functional, cell-based.
The target in test [4] is Protein farnesyltransferase (Homo sapiens, UniProt P49354+P49356). The experiment in a line: Inhibition of Farnesyl transferase inhibitor (ABT-839). The class given is protein-complex assay.
The target in test [5] is Protein farnesyltransferase (Bos taurus) (UniProt P29702+P49355). Put plainly: Percentage inhibition of Bovine farnesyl transferase at 100 nM. The class given is protein-complex assay.
The target of test [6] is T1, Protein farnesyltransferase. Put plainly: Effective concentration against H-ras processing in NIH 3T3 cells. The class given is functional, cell-based, NIH3T3.
Test [7] is filed under the species Bos taurus. Put plainly: Selectivity for Bovine farnesyl transferase over geranylgeranyl transferase.
The target in test [8] is T1, Protein farnesyltransferase. The experiment in a line: Inhibition of H-ras processing in transformed NIH3T3 cells.

Consider `Cn1cncc1C(OCc1ccc(C#N)c(NCC2CCCO2)n1)c1ccc(C#N)c(-c2ccccc2C(F)(F)F)c1` (stereo not drawn), for which the IC50 – broadly, the concentration that inhibits the measured activity by half – was 7.5 nM in test [1], 2400 nM in test [2] and 1.1 nM in test [4]. The EC50 (as a rule, the midpoint of the concentration-response curve) in test [3] turned out to be 285 nM.
On to `Cc1ccccc1-c1cc(C(OCc2ccc(C#N)cc2)c2cncn2C)ccc1C#N` (stereo in doubt; 10a), for which the IC50 in test [1] is 4.8 nM; in test [2], 180 nM. For the same molecule, in test [3], the EC50 came out at 420 nM.
For `Cn1cncc1C(OCc1ccc(C#N)c(N2CCC[C@@H]2CO)n1)c1ccc(C#N)c(-c2ccccc2C(F)(F)F)c1` (stereo partly drawn), the IC50 amounted to 2 nM in test [1] and 920 nM in test [2]. In test [3], the response was half-maximal at 170 nM (EC50).
On to `Cn1cncc1C(OCc1ccc(C#N)cc1)c1ccc(C#N)c(-c2cccc(Cl)c2Cl)c1` (stereo not drawn), for which the IC50 in test [1] worked out at 1.5 nM; in test [2], 85 nM. The same molecule registered an EC50 in test [3] of 240 nM.
Regarding `Cn1cncc1C(OCc1ccc(C#N)c(N2CCC(CO)CC2)n1)c1ccc(C#N)c(-c2ccccc2C(F)(F)F)c1` (stereo not drawn), the figures for the IC50 in test [1] and in test [2] were 1.8 nM and 1400 nM, respectively. Also, in test [3], the EC50 worked out at 11 nM.
`COC(=O)c1ccc(COC(c2ccc(C#N)c(-c3ccccc3C)c2)c2cncn2C)o1` (stereo not drawn): in test [5], the inhibition (in general, how much of the control response was suppressed) worked out at 50%.
In test [5], `Cc1ccccc1-c1cc(C(OCc2ccc3ccccc3c2)c2cncn2C)ccc1C#N` (stereo not drawn) came in with an inhibition of 76%.
Turning to `Cc1ccccc1-c1cc(C(OCc2ccccc2)c2cncn2C)ccc1C#N` (stereo not drawn), the IC50 in test [1] is 84 nM; in test [2], 1300 nM. Also, in test [6], the EC50 came out at 2700 nM. In test [7], this molecule came in with a Selectivity of 16.
As for `Cn1cncc1C(OCc1ccc(C#N)cc1)c1ccc(C#N)c(-c2ccccc2CO)c1` (stereo not drawn), the IC50 in test [1] came to 5.5 nM; in test [2] it was 480 nM. The inhibition in test [8] amounted to 89%.
Turning to `Cn1cncc1C(OCc1ccc(C#N)c(N2CCC(O)C2)n1)c1ccc(C#N)c(-c2ccccc2C(F)(F)F)c1` (stereo not drawn), the IC50 is 3.5 nM in test [1] and 970 nM in test [2]. Besides, the EC50 in test [3] came to 120 nM.
The matching figures for `Cn1cncc1C(OCc1ccc(C#N)c(NCCc2ccccc2)n1)c1ccc(C#N)c(-c2ccccc2C(F)(F)F)c1` (stereo not drawn): 9.1 nM, 2300 nM and more than 1000 nM.
As to `Cc1ccccc1-c1cc(C(OCc2noc(-c3ccccc3)n2)c2cncn2C)ccc1C#N` (stereo not drawn), the inhibition in test [5] is 56%.
The molecule `CCCCN(CCC1CCCCC1)Cc1ccc(C(=O)N[C@@H](CCSC)C(=O)O)c(-c2ccccc2C)c1` displayed a Selectivity in test [7] of 75000.
Take `COC(=O)c1ccc(COC(c2ccc(C#N)c(-c3ccccc3C(F)(F)F)c2)c2cncn2C)nc1` (stereo not drawn): the IC50 in test [1] stood at 9 nM; in test [2], 3900 nM. In addition, the inhibition in test [8] is on record as 83%.
On to `Cn1cncc1C(OCc1ccc(C#N)c(N2CCOCC2)n1)c1ccc(C#N)c(-c2ccccc2C(F)(F)F)c1` (stereo not drawn), for which the IC50 in test [1] turned out to be 1.3 nM; in test [2], 1200 nM. Further, a half-maximal response in test [3] (EC50) required 89 nM.
Consider `Cn1cncc1C(OCc1ccc(C(F)(F)F)c(F)c1)c1ccc(C#N)c(-c2ccccc2C(F)(F)F)c1` (stereo not drawn), for which the IC50 in test [1] worked out at 6.1 nM; in test [2], 160 nM. Moreover, the half-maximal effective concentration (EC50) in test [3] is more than 1000 nM.
Take `CN1CCN(c2nc(COC(c3ccc(C#N)c(-c4ccccc4C(F)(F)F)c3)c3cncn3C)ccc2C#N)CC1` (stereo not drawn): the IC50 in test [1] was 1.2 nM; in test [2], 2600 nM. The molecule also had an EC50 in test [3] of 53 nM.
For `CC(=O)N1CCN(c2nc(COC(c3ccc(C#N)c(-c4ccccc4C(F)(F)F)c3)c3cncn3C)ccc2C#N)CC1` (stereo not drawn), the IC50 in test [1] was found to be 2.6 nM; in test [2], 1800 nM. The molecule further yielded an EC50 in test [3] of 130 nM.

For the origin of these results see ChEMBL document CHEMBL1145145, “Design and synthesis of o-trifluoromethylbiphenyl substituted 2-amino-nicotinonitriles as inhibitors of farnesyltransferase” (Bioorg Med Chem Lett, 2005).
